Assay results from patent publication US12180193B2, “Accelerating fibrosarcoma protein degrading compounds and associated methods of use” (Arvinas Operations, Inc., priority 2020, dated 2024).

Tests used:
BRAF V600E = target: T1, BRAF V600E (Homo sapiens, UniProt P15056, V600E); experiment: Cellular assay of target protein degradation, T-Rex 293 cells stably transfected with HA-BRAF_V600E (HA immunofluorescence, high content imaging); type: cell-based; conditions: T-Rex 293 HA-BRAF V600E; for DC50: half maximal degradation, read-out: BRaf V600E DC50; for Dmax: maximum degradation observed
T1 construct: expressed in transfected cells
T1 sequence (P15056 whole entry V600E): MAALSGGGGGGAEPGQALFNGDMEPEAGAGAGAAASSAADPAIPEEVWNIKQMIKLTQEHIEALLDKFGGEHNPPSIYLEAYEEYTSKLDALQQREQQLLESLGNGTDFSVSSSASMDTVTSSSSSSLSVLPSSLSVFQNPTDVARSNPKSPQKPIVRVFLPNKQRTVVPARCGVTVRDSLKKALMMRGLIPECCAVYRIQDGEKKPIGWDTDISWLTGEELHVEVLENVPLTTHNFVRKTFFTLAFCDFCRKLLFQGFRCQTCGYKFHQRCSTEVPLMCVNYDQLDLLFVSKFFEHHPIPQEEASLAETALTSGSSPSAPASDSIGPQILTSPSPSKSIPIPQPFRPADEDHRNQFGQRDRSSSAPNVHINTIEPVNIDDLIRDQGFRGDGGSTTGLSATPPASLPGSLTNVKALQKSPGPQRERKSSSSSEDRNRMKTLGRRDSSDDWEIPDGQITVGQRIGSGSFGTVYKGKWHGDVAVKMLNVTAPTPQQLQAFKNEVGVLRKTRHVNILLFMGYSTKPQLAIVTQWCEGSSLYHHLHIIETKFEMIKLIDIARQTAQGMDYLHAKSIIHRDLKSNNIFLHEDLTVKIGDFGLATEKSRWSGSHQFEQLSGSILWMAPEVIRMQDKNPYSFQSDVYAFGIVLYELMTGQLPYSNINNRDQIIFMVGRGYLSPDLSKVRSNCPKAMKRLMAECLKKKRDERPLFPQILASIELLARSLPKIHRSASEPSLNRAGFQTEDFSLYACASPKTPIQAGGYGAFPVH
Procedure, shortened: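 Doxycycline-induced (1 ng/mL) T-Rex 293 cells expressing HA-BRAF V600E treated 24 h at 37 °C with compound at 1 μM to 0.1 nM final in 0.1% DMSO. Remaining HA-tagged protein quantified by fixed-cell anti-HA immunofluorescence and high-content imaging; DC50 and Dmax (% of control) derived.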

BRAF G466V = target: T2, BRAF G466V (Homo sapiens, UniProt P15056, G466V); experiment: Cellular assay of target protein degradation, T-Rex 293 cells stably transfected with HA-BRAF G466V (HA immunofluorescence, high content imaging); type: cell-based; conditions: T-Rex 293 HA-BRAF G466V; for DC50: half maximal degradation, read-out: BRaf G466V DC50; for Dmax: maximum degradation observed
T2 construct: expressed in transfected cells
T2 sequence (P15056 whole entry G466V): as the sequence (P15056 whole entry V600E) above, with G466V, E600V counted along it
Procedure, shortened: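 Doxycycline-induced (0.75 ng/mL) cells treated 24 h at 37 °C with compound from 30 nM to 3 pM (0.1% DMSO). After fixation and permeabilisation, HA-tagged BRAF G466V immunostained and quantified by high-content imaging. DC50 and Dmax (percent of control) derived.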

| DC50 (BRAF V600E) | Dmax (BRAF V600E) | DC50 (BRAF G466V) | Dmax (BRAF G466V) | SMILES |
| --- | --- | --- | --- | --- |
| 5 to 50 nM | 35 to 70% | 1 to 10 nM | > 70% | O=C1CC[C@H](N2Cc3cc(N4CCC(CN5CCN(c6ccc(-c7cnc8[nH]cc(C(=O)c9c(F)ccc(NS(=O)(=O)N%10CC[C@@H](F)C%10)c9F)c8c7)cc6)CC5)CC4)ccc3C2=O)C(=O)N1 [Compound 223, (3R)-N-{3-[5-(4-{4-[(1-{2-[(3S)-2,6-dioxopiperidin-3-yl]-1-oxo-2,3-dihydro-1H-isoindol-5-yl}piperidin-4-yl)methyl]piperazin-1-yl}phenyl)-1H-pyrrolo [2,3-b]pyridine-3-carbonyl]-2,4-difluorophenyl}-3-fluoropyrrolidine-1-sulfonamide] |
| 5 to 50 nM | 35 to 70% | 1 to 10 nM | > 70% | O=C1CC[C@H](N2Cc3cc(C4CN(CC5CC6(C5)CN(c5ccc(-c7cnc8[nH]cc(C(=O)c9c(F)ccc(NS(=O)(=O)N%10CC[C@@H](F)C%10)c9F)c8c7)cc5)C6)C4)ccc3C2=O)C(=O)N1 [Compound 99, (3R)-N-{3-[5-(4-{6-[(3-{2-[(3S)-2,6-dioxopiperidin-3-yl]-1-oxo-2,3-dihydro-1H-isoindol-5-yl}azetidin-1-yl)methyl]-2-azaspiro[3.3]heptan-2-yl}phenyl)-1H-pyrrolo[2,3-b]pyridine-3-carbonyl]-2,4-difluorophenyl}-3-fluoropyrrolidine-1-sulfonamide] |
| 5 to 50 nM | 35 to 70% | 1 to 10 nM | > 70% | O=C1CCC(N2Cc3cc(N4CC(CN5CCC(Cc6ccc(-c7cnc8[nH]cc(C(=O)c9c(F)ccc(NS(=O)(=O)N%10CC[C@@H](F)C%10)c9F)c8c7)cc6)CC5)C4)ccc3C2=O)C(=O)N1 (stereo partly drawn) [Compound 303, (3R)-N-{3-[5-(4-{[1-({1-[2-(2,6-dioxopiperidin-3-yl)-1-oxo-2,3-dihydro-1H-isoindol-5-yl]azetidin-3-yl}methyl)piperidin-4-yl]methyl}phenyl)-1H-pyrrolo[2,3-b]pyridine-3-carbonyl]-2,4-difluorophenyl}-3-fluoropyrrolidine-1-sulfonamide] |
| 5 to 50 nM | 35 to 70% | 1 to 10 nM | > 70% | O=C1CC[C@@H](N2Cc3cc(N4CC(CN5C[C@@H]6CN(c7ccc(-c8cnc9[nH]cc(C(=O)c%10c(F)ccc(NS(=O)(=O)N%11CC[C@@H](F)C%11)c%10F)c9c8)cc7)C[C@@H]6C5)C4)ccc3C2=O)C(=O)N1 [Compound 86, (3R)-N-[3-(5-{4-[(3aR,6aS)-5-[(1-{2-[(3R)-2,6-dioxopiperidin-3-yl]-1-oxo-2,3-dihydro-1H-isoindol-5-yl}azetidin-3-yl)methyl]-octahydropyrrolo[3,4-c]pyrrol-2-yl]phenyl}-1H-pyrrolo[2,3-b]pyridine-3-carbonyl)-2,4-difluorophenyl]-3-fluoropyrrolidine-1-sulfonamide] |
| 5 to 50 nM | < 35% | 10 to 30 nM | > 70% | O=C1CC[C@H](N2Cc3cc(C4CCN(CC5CCN(c6ccc(-c7cnc8[nH]cc(C(=O)c9c(F)ccc(NS(=O)(=O)N%10CC(O)C%10)c9F)c8c7)cc6)CC5)CC4)ccc3C2=O)C(=O)N1 [Compound 279, N-{3-[5-(4-{4-[(4-{2-[(3S)-2,6-dioxopiperidin-3-yl]-1-oxo-2,3-dihydro-1H-isoindol-5-yl}piperidin-1-yl)methyl]piperidin-1-yl}phenyl)-1H-pyrrolo[2,3-b]pyridine-3-carbonyl]-2,4-difluorophenyl}-3-hydroxyazetidine-1-sulfonamide] |
| 5 to 50 nM | 35 to 70% | 1 to 10 nM | > 70% | O=C1CC[C@H](N2Cc3cc(C[C@@H](O)CN4CC5(C4)CN(c4ccc(-c6cnc7[nH]cc(C(=O)c8c(F)ccc(NS(=O)(=O)N9CC[C@@H](F)C9)c8F)c7c6)cc4)C5)ccc3C2=O)C(=O)N1 [Compound 128, (3R)-N-{3-[5-(4-{6-[(2R)-3-{2-[(3S)-2,6-dioxopiperidin-3-yl]-1-oxo-2,3-dihydro-1H-isoindol-5-yl}-2-hydroxypropyl]-2,6-diazaspiro[3.3]heptan-2-yl}phenyl)-1H-pyrrolo[2,3-b]pyridine-3-carbonyl]-2,4-difluorophenyl}-3-fluoropyrrolidine-1-sulfonamide] |

The remaining lines, values behind:

| SMILES | DC50 (BRAF V600E) | Dmax (BRAF V600E) | DC50 (BRAF G466V) | Dmax (BRAF G466V) |
| --- | --- | --- | --- | --- |
| COc1cc(C2CCN(CC3CCN(c4ccc(-c5cnc6[nH]cc(C(=O)c7c(F)ccc(NS(=O)(=O)N8CC[C@@H](F)C8)c7F)c6c5)cn4)CC3)CC2)cc2c1C(=O)N(C1CCC(=O)NC1=O)C2 (stereo partly drawn) [Compound 164, (3R)-N-[3-(5-{6-[4-({4-[2-(2,6-dioxopiperidin-3-yl)-7-methoxy-1-oxo-2,3-dihydro-1H-isoindol-5-yl]piperidin-1-yl}methyl)piperidin-1-yl]pyridin-3-yl}-1H-pyrrolo[2,3-b]pyridine-3-carbonyl)-2,4-difluorophenyl]-3-fluoropyrrolidine-1-sulfonamide] | 5 to 50 nM | 35 to 70% | < 1 nM | > 70% |
| O=C1CCC(N2Cc3cc(N4CCN(CCCCCc5ccc(-c6cnc7[nH]cc(C(=O)c8c(F)ccc(NS(=O)(=O)N9CC[C@@H](F)C9)c8F)c7c6)cc5)CC4)ccc3C2=O)C(=O)N1 (stereo partly drawn) [Compound 318, (3R)-N-(3-{5-[4-(5-{4-[2-(2,6-dioxopiperidin-3-yl)-1-oxo-2,3-dihydro-1H-isoindol-5-yl]piperazin-1-yl}penyl)phenyl]-1H-pyrrolo[2,3-b]pyridine-3-carbonyl}-2,4-difluorophenyl)-3-fluoropyrrolidine-1-sulfonamide] | 50 to 500 nM | 35 to 70% | 10 to 30 nM | 35 to 70% |
| CN(CCN1CCN(c2ccc3c(c2)CN(C2CCC(=O)NC2=O)C3=O)CC1)[C@H]1C[C@@H](Oc2ccc(-c3cnc4[nH]cc(C(=O)c5c(F)ccc(NS(=O)(=O)N6CC[C@@H](F)C6)c5F)c4c3)cc2)C1 (stereo partly drawn) [Compound 182, (3R)-N-[2,4-difluoro-3-(5-{4-[(1s,3s)-3-[(2-{4-[2-(2,6-dioxopiperidin-3-yl)-1-oxo-2,3-dihydro-1H-isoindol-5-yl]piperazin-1-yl}ethyl)(methyl)amino]cyclobutoxy)phe-nyl}-1H-pyrrolo[2,3-b]pyridine-3-carbonyl)phenyl]-3-fluoropyrrolidine-1-sulfonamide] | 50 to 500 nM | 35 to 70% | 1 to 10 nM | > 70% |
| O=C1CCC(N2Cc3cc(C4CCN(CC5CCN(c6ncc(-c7cnc8[nH]cc(C(=O)c9c(F)ccc(NS(=O)(=O)N%10CC[C@@H](F)C%10)c9F)c8c7)cn6)CC5)CC4)ccc3C2=O)C(=O)N1 (stereo partly drawn) [Compound 46, (3R)-N-[3-(5-{2-[4-({4-[2-(2,6-dioxopiperidin-3-yl)-1-oxo-2,3-dihydro-1H-isoindol-5-yl]piperidin-1-yl}methyl)piperidin-1-yl]pyrimidin-5-yl}-1H-pyrrolo[2,3-b]pyridine-3-carbonyl)-2,4-difluorophenyl]-3-fluoropyrrolidine-1-sulfonamide] | 5 to 50 nM | 35 to 70% | < 1 nM | > 70% |
| COc1cc(OCCN2CCN(CCOc3ccc(-c4cnc5[nH]cc(C(=O)c6c(F)ccc(NS(=O)(=O)N7CC[C@@H](F)C7)c6F)c5c4)cc3)CC2)cc2c1C(=O)N([C@@H]1CCC(=O)NC1=O)C2 [Compound 45, (3R)-N-(3-{5-[4-(2-{4-[2-({2-[(3R)-2,6-dioxopiperidin-3-yl]-7-methoxy-1-oxo-2,3-dihydro-1H-isoindol-5-yl}oxy)ethyl]piperazin-1-yl}ethoxy)phenyl]-1H-pyrrolo[2,3-b]pyridine-3-carbonyl}-2,4-difluorophenyl)-3-fluoropyrrolidine-1-sulfonamide] | 5 to 50 nM | 35 to 70% | < 1 nM | 35 to 70% |
| O=C1CCC(c2ccc(N3CC4(CN(CC5CCN(c6ccc(-c7cnc8[nH]cc(C(=O)c9c(F)ccc(NS(=O)(=O)N%10CC[C@@H](F)C%10)c9F)c8c7)cc6)CC5)C4)C3)cc2)C(=O)N1 (stereo partly drawn) [Compound 368, (3R)-N-[3-(5-{4-[4-({6-[4-(2,6-dioxopiperidin-3-yl)phenyl]-2,6-diazaspiro[3.3]heptan-2-yl}methyl)piperidin-1-yl]phenyl}-1H-pyrrolo[2,3-b]pyridine-3-carbonyl)-2,4-difluorophenyl]-3-fluoropyrrolidine-1-sulfonamide] | 5 to 50 nM | 35 to 70% | 1 to 10 nM | 35 to 70% |
| O=C1CCC(N2Cc3cc(OCCCCN4CCN(c5ccc(-c6cnc7[nH]cc(C(=O)c8c(F)ccc(NS(=O)(=O)N9CC[C@@H](F)C9)c8F)c7c6)cn5)CC4)ccc3C2=O)C(=O)N1 (stereo partly drawn) [Compound 120, (3R)-N-[3-(5-{6-[4-(4-{[2-(2,6-dioxopiperidin-3-yl)-1-oxo-2,3-dihydro-1H-isoindol-5-yl]oxy}butyl)piperazin-1-yl]pyridin-3-yl}-1H-pyrrolo[2,3-b]pyridine-3-carbonyl)-2,4-difluorophenyl]-3-fluoropyrrolidine-1-sulfonamide] | 5 to 50 nM | 35 to 70% | 1 to 10 nM | > 70% |
| O=C1CCC(N2Cc3cc(N4CC5(CN(CC6CCN(c7ccc(-c8cnc9[nH]cc(C(=O)c%10c(F)ccc(NS(=O)(=O)N%11CCC(F)(F)C%11)c%10F)c9c8)cc7)CC6)C5)C4)ccc3C2=O)C(=O)N1 (centres unmarked) [Compound 246, N-[3-(5-{4-[4-({6-[2-(2,6-dioxopiperidin-3-yl)-1-oxo-2,3-dihydro-1H-isoindol-5-yl]-2,6-diazaspiro[3.3]heptan-2-yl}methyl)piperidin-1-yl]phenyl}-1H-pyrrolo [2,3-b]pyridine-3-carbonyl)-2,4-difluorophenyl]-3,3-difluoropyrrolidine-1-sulfonamide] | 5 to 50 nM | 35 to 70% | 1 to 10 nM | > 70% |
